According to PubChem BioAssay (NCI):
Where “and” joins values, the source holds several entries; their conditions need not be identical. Identical values can stand only once.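 Exposure lasted 48 hours, with cells grown in 96-well plates and compounds tested at five concentrations. GI50 marks 50% less growth. TGI denotes the concentration required for complete inhibition of growth.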

Assays:
Test in all cases: inhibition of tumour cell growth, NCI panel, 48 h
PC-3 prostate = system: PC-3 prostate
MDA-MB-231 breast = system: MDA-MB-231 breast
NCI-H460 lung = system: NCI-H460 lung
TK-10 renal = system: TK-10 renal
K-562 leukemia = system: K-562 leukemia
A498 renal = system: A498 renal
MOLT-4 leukemia = system: MOLT-4 leukemia
IGROV1 ovarian = system: IGROV1 ovarian
HL-60(TB) leukemia = system: HL-60(TB) leukemia
OVCAR-3 ovarian = system: OVCAR-3 ovarian

COc1cc(C2NC(=O)c3ccccc3N2)ccc1OCCCCCOc1c(OC)cc(C2=NOC(c3cc(OC)c(OC)c(OC)c3)C2)cc1OC (stereo not drawn)
GI50 (PC-3 prostate): 4.62 µM
TGI (PC-3 prostate): > 66.5 µM
GI50 (MDA-MB-231 breast): 14.8 µM
TGI (MDA-MB-231 breast): > 75.4 µM
GI50 (NCI-H460 lung): 14.2 µM
TGI (NCI-H460 lung): 67.2 µM
GI50 (TK-10 renal): > 100 µM
TGI (TK-10 renal): > 100 µM
GI50 (K-562 leukemia): 0.431 µM
TGI (K-562 leukemia): > 100 µM
GI50 (A498 renal): 19.5 µM
TGI (A498 renal): > 76.8 µM
GI50 (MOLT-4 leukemia): 0.57 µM
TGI (MOLT-4 leukemia): > 100 µM
GI50 (IGROV1 ovarian): 0.601 µM
TGI (IGROV1 ovarian): > 71 µM
GI50 (HL-60(TB) leukemia): 11.7 µM
TGI (HL-60(TB) leukemia): > 53.9 µM
GI50 (OVCAR-3 ovarian): 12.6 µM
TGI (OVCAR-3 ovarian): 44 µM

Cc1ccc2c(c1)[n+]([O-])c(N)n[n+]2[O-]
TGI (PC-3 prostate): > 100 µM
TGI (MDA-MB-231 breast): > 100 µM
TGI (NCI-H460 lung): > 100 µM
TGI (TK-10 renal): > 100 µM
TGI (K-562 leukemia): > 100 µM
TGI (A498 renal): > 100 µM
TGI (MOLT-4 leukemia): > 100 µM
TGI (IGROV1 ovarian): > 100 µM
TGI (HL-60(TB) leukemia): > 100 µM
TGI (OVCAR-3 ovarian): > 100 µM

CS(=O)(=O)c1ccc([C@H]2O[C@@H](CO)C[C@]2(O)c2ccc(S(C)(=O)=O)cc2)cc1
GI50 (PC-3 prostate): > 100 µM
TGI (PC-3 prostate): > 100 µM
GI50 (MDA-MB-231 breast): > 100 µM
TGI (MDA-MB-231 breast): > 100 µM
GI50 (NCI-H460 lung): > 100 µM
TGI (NCI-H460 lung): > 100 µM
GI50 (TK-10 renal): > 100 µM
TGI (TK-10 renal): > 100 µM
GI50 (K-562 leukemia): > 100 µM
TGI (K-562 leukemia): > 100 µM
GI50 (A498 renal): > 100 µM
TGI (A498 renal): > 100 µM
GI50 (MOLT-4 leukemia): > 100 µM
TGI (MOLT-4 leukemia): > 100 µM
GI50 (IGROV1 ovarian): > 100 µM
TGI (IGROV1 ovarian): > 100 µM
GI50 (HL-60(TB) leukemia): > 100 µM
TGI (HL-60(TB) leukemia): > 100 µM
GI50 (OVCAR-3 ovarian): > 100 µM
TGI (OVCAR-3 ovarian): > 100 µM

CN1CCN(C(=O)OCc2nc3c(N4CCOCC4)nc(Cl)nc3n2C)CC1
GI50 (PC-3 prostate): 1.33 µM
TGI (PC-3 prostate): 2.92 µM
GI50 (MDA-MB-231 breast): 0.566 µM
TGI (MDA-MB-231 breast): 2.22 µM
GI50 (NCI-H460 lung): 1.64 µM
TGI (NCI-H460 lung): 3.51 µM
GI50 (TK-10 renal): 1.59 µM
TGI (TK-10 renal): 3.05 µM
GI50 (K-562 leukemia): 1.21 µM
TGI (K-562 leukemia): 15.7 µM
GI50 (A498 renal): 1.15 µM
TGI (A498 renal): 2.46 µM
GI50 (MOLT-4 leukemia): 1.19 µM
TGI (MOLT-4 leukemia): 4.69 µM
GI50 (IGROV1 ovarian): 1.24 µM
TGI (IGROV1 ovarian): 2.57 µM
GI50 (HL-60(TB) leukemia): 0.65 µM
TGI (HL-60(TB) leukemia): 3.28 µM
GI50 (OVCAR-3 ovarian): 0.547 µM
TGI (OVCAR-3 ovarian): 2.15 µM

CC[C@@H]1C(=O)N(C)c2cnc(Nc3ccc(C(=O)NC4CCN(C)CC4)cc3OC)nc2N1C1CCCC1
GI50 (PC-3 prostate): 0.00454 µM and < 0.01 µM
TGI (PC-3 prostate): > 10 µM and 19.1 µM
GI50 (MDA-MB-231 breast): 0.00552 µM
TGI (MDA-MB-231 breast): 3.21 µM
GI50 (NCI-H460 lung): 0.00386 µM and < 0.01 µM
TGI (NCI-H460 lung): > 10 µM and 6.64 µM
GI50 (TK-10 renal): 0.285 µM and 0.123 µM
TGI (TK-10 renal): > 7.36 µM and 5.56 µM
GI50 (K-562 leukemia): 0.00367 µM and < 0.01 µM
TGI (K-562 leukemia): > 10 µM and 3.54 µM
GI50 (A498 renal): 0.0245 µM and 0.0246 µM
TGI (A498 renal): 0.146 µM and 0.368 µM
GI50 (MOLT-4 leukemia): 0.00387 µM and < 0.01 µM
TGI (MOLT-4 leukemia): 1.39 µM and 0.579 µM
TGI (IGROV1 ovarian): 4.15 µM and 11.8 µM
GI50 (HL-60(TB) leukemia): 0.00231 µM and < 0.01 µM
TGI (HL-60(TB) leukemia): 0.00631 µM and 0.0445 µM
GI50 (OVCAR-3 ovarian): 0.00353 µM and < 0.01 µM

CC(=O)OC[C@]1(C)C=C2C(=O)[C@](C)(O)C3(CC3)C(C)=C2[C@H]1O
GI50 (PC-3 prostate): 0.135 µM
TGI (PC-3 prostate): 1.29 µM
GI50 (MDA-MB-231 breast): 0.152 µM
TGI (MDA-MB-231 breast): 0.806 µM
GI50 (NCI-H460 lung): 0.0282 µM
TGI (NCI-H460 lung): 0.0844 µM
GI50 (TK-10 renal): 0.233 µM
TGI (TK-10 renal): 2.99 µM
GI50 (K-562 leukemia): 0.131 µM
TGI (K-562 leukemia): > 100 µM
GI50 (A498 renal): 0.148 µM
TGI (A498 renal): 0.366 µM
GI50 (MOLT-4 leukemia): 0.0629 µM
TGI (MOLT-4 leukemia): > 100 µM
GI50 (IGROV1 ovarian): 0.0457 µM
TGI (IGROV1 ovarian): 0.364 µM
GI50 (HL-60(TB) leukemia): 0.0861 µM
TGI (HL-60(TB) leukemia): 0.852 µM
GI50 (OVCAR-3 ovarian): 0.0424 µM
TGI (OVCAR-3 ovarian): 0.417 µM

Oc1ccc2ccccc2c1N=Nc1nccs1
GI50 (PC-3 prostate): 1.13 µM
TGI (PC-3 prostate): > 66.1 µM
GI50 (MDA-MB-231 breast): 0.745 µM
TGI (MDA-MB-231 breast): > 100 µM
GI50 (NCI-H460 lung): 0.839 µM
TGI (NCI-H460 lung): > 100 µM
GI50 (TK-10 renal): 8.28 µM
TGI (TK-10 renal): 22.2 µM
GI50 (K-562 leukemia): 0.438 µM
TGI (K-562 leukemia): > 100 µM
GI50 (A498 renal): 10.5 µM
TGI (A498 renal): > 96.7 µM
GI50 (MOLT-4 leukemia): 0.186 µM
TGI (MOLT-4 leukemia): > 46.9 µM
GI50 (IGROV1 ovarian): 0.172 µM
TGI (IGROV1 ovarian): 6.95 µM
GI50 (HL-60(TB) leukemia): 0.267 µM
TGI (HL-60(TB) leukemia): > 100 µM
GI50 (OVCAR-3 ovarian): 0.417 µM
TGI (OVCAR-3 ovarian): 8.99 µM

CC(=O)OCCN1c2ccccc2Sc2cnccc21
TGI (PC-3 prostate): > 10 µM
TGI (MDA-MB-231 breast): > 10 µM
TGI (NCI-H460 lung): > 10 µM
TGI (TK-10 renal): > 10 µM
TGI (K-562 leukemia): > 10 µM
TGI (A498 renal): > 10 µM
TGI (MOLT-4 leukemia): > 10 µM
TGI (IGROV1 ovarian): > 10 µM
TGI (HL-60(TB) leukemia): > 10 µM
TGI (OVCAR-3 ovarian): > 10 µM

CC1(C)OC2[C@@H](CNC(=O)NC(=O)NC(=O)CI)O[C@@H](n3cnc4c(NC(=O)Nc5ccccc5)ncnc43)[C@H]2O1 (stereo partly drawn)
GI50 (PC-3 prostate): 8 µM
TGI (PC-3 prostate): 16.6 µM
GI50 (MDA-MB-231 breast): 9.42 µM
TGI (MDA-MB-231 breast): 19.4 µM
GI50 (NCI-H460 lung): 27 µM
TGI (NCI-H460 lung): > 50 µM
GI50 (TK-10 renal): 8.59 µM
TGI (TK-10 renal): 15.5 µM
GI50 (K-562 leukemia): 2.3 µM
TGI (K-562 leukemia): 10.5 µM
GI50 (A498 renal): 18 µM
TGI (A498 renal): > 50 µM
GI50 (MOLT-4 leukemia): 1.86 µM
TGI (MOLT-4 leukemia): 9.28 µM
GI50 (IGROV1 ovarian): 2.15 µM
TGI (IGROV1 ovarian): 8.6 µM
GI50 (HL-60(TB) leukemia): 1.61 µM
TGI (HL-60(TB) leukemia): 4.13 µM
GI50 (OVCAR-3 ovarian): 5.72 µM
TGI (OVCAR-3 ovarian): 12.6 µM

N#Cc1ccc(NC(=O)Nc2ccc(Oc3ccc(NC(=O)Nc4ccc(C#N)cc4)cc3)cc2)cc1
GI50 (PC-3 prostate): 25.6 µM
TGI (PC-3 prostate): > 100 µM
GI50 (MDA-MB-231 breast): 12.4 µM
TGI (MDA-MB-231 breast): > 100 µM
GI50 (NCI-H460 lung): 3.24 µM
TGI (NCI-H460 lung): > 100 µM
GI50 (TK-10 renal): 23.2 µM
TGI (TK-10 renal): 89 µM
GI50 (K-562 leukemia): 2.11 µM
TGI (K-562 leukemia): > 100 µM
GI50 (A498 renal): 15.9 µM
TGI (A498 renal): 61.2 µM
GI50 (MOLT-4 leukemia): 1.12 µM
TGI (MOLT-4 leukemia): 37.7 µM
GI50 (IGROV1 ovarian): 30.4 µM
TGI (IGROV1 ovarian): > 100 µM
GI50 (HL-60(TB) leukemia): 1.17 µM
TGI (HL-60(TB) leukemia): 83.8 µM
GI50 (OVCAR-3 ovarian): 19.4 µM
TGI (OVCAR-3 ovarian): > 100 µM

C=C1C(=O)O[C@H]2[C@H]1CC/C(Cn1cc(-c3ccc(OC)cc3)nn1)=C\CC[C@@]1(C)O[C@@H]21
GI50 (PC-3 prostate): 9.35 µM
TGI (PC-3 prostate): 22.2 µM
GI50 (MDA-MB-231 breast): 1.44 µM
TGI (MDA-MB-231 breast): 3.15 µM
GI50 (NCI-H460 lung): 8.45 µM
TGI (NCI-H460 lung): 25.2 µM
GI50 (TK-10 renal): 1.42 µM
TGI (TK-10 renal): 2.85 µM
GI50 (K-562 leukemia): 1.3 µM
TGI (K-562 leukemia): 6.87 µM
GI50 (A498 renal): 2.35 µM
TGI (A498 renal): 11.3 µM
GI50 (MOLT-4 leukemia): 1.13 µM
TGI (MOLT-4 leukemia): 3.66 µM
GI50 (IGROV1 ovarian): 1.35 µM
TGI (IGROV1 ovarian): 3.27 µM
GI50 (HL-60(TB) leukemia): 1.17 µM
TGI (HL-60(TB) leukemia): 3.86 µM
GI50 (OVCAR-3 ovarian): 0.569 µM
TGI (OVCAR-3 ovarian): 1.8 µM
